Experimental data published in patent US10925967B2, “Degradation of Bruton's tyrosine kinase (BTK) by conjugation of BTK inhibitors with E3 ligase ligand and methods of use” (Dana-Farber Cancer Institute, Inc., priority 2016, dated 2021).

Assays:
[1] = target: T1, BTK (Homo sapiens, UniProt Q06187); assay: K562 cell assay and Western blotting of BTK levels; assay type: cell-based; design: endogenous in cells; host or cells: K562 cells; conditions: K562 cells, 200 nM, 1 μM, or 5 μM, 12 hours
Protocol: K562 cells were treated with DMSO or with 200 nM, 1 μM, or 5 μM of a BTK bifunctional inhibitor compound of the disclosure for 12 hours, followed by protein lysate harvest and Western blotting analysis.
(§1) Cells are lysed using RIPA buffer supplemented with protease inhibitor cocktail (Roche) and phosSTOP phosphatase inhibitor cocktail (Roche) on ice for 15 minutes. The lysates are spun at 20,000×g for 15 minutes on 4° C. and protein concentration is determined using BCA assay (Pierce). The following primary antibodies are used in this study: BTK, GADPH, tubulin and Aurora A kinase (all from Cell Signaling Technology). Blots are imaged using fluorescence-labeled secondary antibodies (LI-COR) on the OdysseyCLxImager (LI-COR). Quantification of band intensities is performed using OdysseyCLx software (LI-COR).

[2] = target: T1, BTK; assay: MOLM14 cell assay and Western blotting of BTK, Aurora A and tubulin levels; assay type: cell-based; design: endogenous in cells; conditions: MOLM14 cells, 40 nM, 200 nM, 1 μM, 4 hours
Protocol: MOLM14 cells were treated with DMSO or with 40 nM, 200 nM, 1 μM of a BTK bifunctional inhibitor compound of the disclosure for 4 hours, followed by protein lysate harvest and Western blotting analysis of BTK, Aurora A, and ca-tubulin levels. […] (FIG. 2)
as §1

T1 sequence (Q06187 whole entry): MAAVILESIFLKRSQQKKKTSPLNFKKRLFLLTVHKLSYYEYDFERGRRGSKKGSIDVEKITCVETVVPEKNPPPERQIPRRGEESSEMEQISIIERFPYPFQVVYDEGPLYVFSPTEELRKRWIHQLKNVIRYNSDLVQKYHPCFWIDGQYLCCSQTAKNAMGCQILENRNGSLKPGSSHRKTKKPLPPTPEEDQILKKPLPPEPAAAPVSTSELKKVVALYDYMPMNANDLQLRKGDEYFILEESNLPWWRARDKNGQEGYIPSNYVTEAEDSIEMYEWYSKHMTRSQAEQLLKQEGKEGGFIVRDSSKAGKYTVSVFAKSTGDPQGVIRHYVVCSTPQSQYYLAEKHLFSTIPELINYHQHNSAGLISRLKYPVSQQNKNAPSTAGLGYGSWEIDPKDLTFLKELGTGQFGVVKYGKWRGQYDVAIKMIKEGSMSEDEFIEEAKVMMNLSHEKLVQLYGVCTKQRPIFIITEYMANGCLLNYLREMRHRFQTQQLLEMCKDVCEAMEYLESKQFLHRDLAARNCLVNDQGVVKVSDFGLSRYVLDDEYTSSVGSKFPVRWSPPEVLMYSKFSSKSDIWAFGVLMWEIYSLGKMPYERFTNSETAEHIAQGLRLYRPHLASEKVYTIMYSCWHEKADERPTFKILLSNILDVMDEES

Compound	BTK degradation (Western blot) [1]	BTK degradation (Western blot) [2]
COc1cc(Nc2c(C#N)cnc3cc(OCCCN4CCN(CCOCCOCCOCCNc5cccc6c5C(=O)N(C5CCC(=O)NC5=O)C6=O)CC4)c(OC)cc23)c(Cl)cc1Cl (stereo not drawn) [Compound I-2]	showed BTK degradation	–
COc1cc(Nc2c(C#N)cnc3cc(OCCCN4CCN(CCOCCOCCNc5cccc6c5C(=O)N(C5CCC(=O)NC5=O)C6=O)CC4)c(OC)cc23)c(Cl)cc1Cl (stereo not drawn) [Compound I-3]	–	showed BTK degradation
COc1cc(Nc2c(C#N)cnc3cc(OCCCN4CCN(C(=O)CCCNC(=O)COc5cccc6c5C(=O)N(C5CCC(=O)NC5=O)C6=O)CC4)c(OC)cc23)c(Cl)cc1Cl (stereo not drawn) [Compound I-5]	showed BTK degradation	–
